This is an account of results in PMC9413491, “A Novel and Cross-Species Active Mammalian INDY (NaCT) Inhibitor Ameliorates Hepatic Steatosis in Mice with Diet-Induced Obesity” (Metabolites, 2022).

By IC50 is commonly meant the concentration needed to halve the response being measured.

Data set [1] deals with DIO mice. In words: Short-term tolerability studies in the DIO mouse model. The format is in vivo. An excerpt:
Next, we tested the functional activity of ETG-5773 in vivo to establish whether the effects on in vitro citrate uptake and FAS were physiologically relevant. […] Therefore, we applied pair-fed control groups to explore the pharmacological actions on metabolism without interference from food-intake effects.
[…] […] The potential for off-target effects on feeding behaviour provided the rational for including pair-fed control groups.

Data set [2] concerns fatty acid synthesis in HepG2 cells. In words: Fatty acid synthesis assay ([14C] citrate incorporation) in HepG2 cells. The format is cell-based, human. As to the method:
We performed the fatty acid synthesis assay in HepG2 cells. We seeded cells into black clear-bottom 96-well plates (Corning 3340 cell plate) 75,000/well and incubated at 37 °C. After 16–24 h, we washed the plates once with 100 µL PBS (+CaCl2 +MgCl2) and added 50 µL assay medium ([…] containing 11 mM glucose, 10 mM HEPES, and 1 nM insulin) per well. Then, we applied test substances in assay medium (10 µL, 5% DMSO) and incubated for 20 min at 37 °C. Thereafter, we added 10 µL assay medium containing [14C] citrate (final concentration 50 µM) and PrestoBlue reagent (1× final concentration; Thermo Fisher Scientific, Waltham, MA, USA) and incubated for 180 min (37 °C, 5% CO2). We measured cell viability (ViewLux instrument, Perkin Elmer). We removed medium by vacuum aspiration and washed cells once with 100 µL PBS (+CaCl2 +MgCl2). We lysed cells with 50 µL lysis buffer (0.1 N NaOH, 0.1 % Triton X-100) and sealed plates with Tape Pads and vortexed. For the saponification reaction, we incubated plates for 16–24 h at 70 °C in a humidified environment. Then, we removed seals and added 200 µL 0.1 N HCl to neutralise the pH. We transferred 150 µL from each into corresponding wells of a 96-well Flash plate (Perkin Elmer) and sealed with TopSeal A (Perkin Elmer). We incubated plates for 4 h at 70 °C and for at least 3 h at room temperature in the dark. We measured [14C] radioactivity (microbeta2, Perkin Elmer). For control samples, we applied 50 mM unlabelled citrate or C75 (Sigma-Aldrich, St. Louis, MO, USA, C5490).

The target of data set [3] is T1, human NaDC3 (SLC13A3) (Homo sapiens, UniProt Q8WWT9).
T1 construct: expressed in transfected cells; host or cells: HEK293 (HEK-NaDC3), hygromycin selection
T1 sequence (Q8WWT9 1-602): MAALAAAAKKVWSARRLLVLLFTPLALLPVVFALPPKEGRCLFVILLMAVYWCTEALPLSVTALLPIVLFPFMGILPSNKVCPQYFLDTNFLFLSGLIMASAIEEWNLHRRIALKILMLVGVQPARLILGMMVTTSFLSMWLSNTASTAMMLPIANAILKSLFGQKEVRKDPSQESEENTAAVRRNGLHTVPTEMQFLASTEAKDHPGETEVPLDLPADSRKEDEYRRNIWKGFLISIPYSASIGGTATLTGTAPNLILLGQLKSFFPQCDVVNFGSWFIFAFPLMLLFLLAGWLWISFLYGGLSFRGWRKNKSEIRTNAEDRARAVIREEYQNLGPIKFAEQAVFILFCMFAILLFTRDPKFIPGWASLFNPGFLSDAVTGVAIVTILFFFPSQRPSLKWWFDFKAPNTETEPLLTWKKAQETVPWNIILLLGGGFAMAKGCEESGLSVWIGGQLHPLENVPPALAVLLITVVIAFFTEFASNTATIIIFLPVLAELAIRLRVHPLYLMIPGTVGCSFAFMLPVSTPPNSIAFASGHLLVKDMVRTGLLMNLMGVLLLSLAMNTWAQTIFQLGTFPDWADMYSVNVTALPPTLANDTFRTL
In words: [14C] succinate uptake in HEK293 cells overexpressing human NaDC3. In kind it is cell-based. An excerpt:
We obtained the compound by screening a library containing more than 50,000 highly diverse lead-like compounds from the Evotec Discovery Library (Evotec SE) and progressing initial hit-through-hit expansion and hit-to-lead optimisation phases. Compound library details are described under https://www.evotec.com/en/execute/drug-discovery-services/hit-identification (accessed on 5 August 2022). We used [14C] citrate uptake assays with HEK293 cells overexpressing recombinant human NaCT (HEK-NaCT). For confirmation, we measured citrate uptake using HepG2 cells which endogenously express NaCT. Furthermore, we measured activity on mouse Nact in a similar assay system using HEK293 cells recombinantly expressing murine Nact (HEK-Nact). We then tested the selectivity of selected compounds with another transporter of the same family—NaDC3. Selectivity was determined by a succinate uptake assay for NaDC3 using HepG2 cells or using HEK293 cells overexpressing recombinant human NaDC3.
For radiometric [14C] succinate uptake assays, we applied HEK cells overexpressing human NaDC3 and measured according to the procedure described previously, with a modified incubation buffer of HBSS buffer, supplemented with 20 mM HEPES, pH 7.4 and positive control 2,2-Dimethylsuccinic acid (Sigma-Aldrich, St. Louis, MO, USA).

Turning to `O=C(Nc1cc(Cl)cc(C(F)(F)F)c1)OCCC(F)(F)F` [ETG-5773], the “Tolerability of the selected dose” value in data set [1] (15 mg/kg twice daily) is recorded as “well tolerated”. The Food intake entry in data set [1] (preliminary short-term tolerability studies, DIO mouse model) is recorded as “reduced food intake”. Besides, the “IC50 difference in fatty acid synthesis versus PF-06649298” value in data set [2] (ETG-5773 compared to PF-06649298, HepG2) is on record as “around 40 fold”. Moreover, the IC50 in data set [2] (Homo sapiens, HepG2, [14C] citrate incorporation, read-out: IC50 fatty acid synthesis, HepG2) was 1000 nM; in data set [3] (HEK293 overexpressing human NaDC3, succinate substrate), greater than 20000 nM. Further, the “Selectivity for NaCT against NaDC3” value in data set [3] (NaCT citrate uptake vs NaDC3 succinate uptake) is reported as “more than 100 fold”.
